Results published in paper PMC6911004, “Fragment-based screening identifies molecules targeting the substrate-binding ankyrin repeat domains of tankyrase” (Scientific Reports, 2019).

Assays:
Assay in all cases: WaterLOGSY NMR assay
Format in all cases: binding
[1] = biological target: T1, TNKS ARC2–3 (331–645) (Homo sapiens, UniProt O95271)
T1 construct: TNKS ARC2–3 (331–645); His6-GST; made in house; host or cells: E. coli
Procedure: (§1) Fragments were dispensed in duplicate into a 384-well plate (250 nL, 100 mM stock in DMSO). Wells were backfilled with DMSO (2.25 μL). Tankyrase ARC protein (47.5 μL in 25 mM HEPES-NaOH pH7.5, 100 mM NaCl, 2 mM TCEP, 10% D2O; 20 μM final protein concentration in the assay) was added to the samples containing protein; buffer only (47.5 μL) was added to the compound-only samples. Solutions were transferred to 1.7 mm NMR tubes using a Gilson liquid handling system. ^1H NMR spectra were recorded, with the DMSO signal dampened. The bulk water signal at 4.7 ppm was selectively inverted. Data were processed using Bruker Topspin 3.14[66].

[2] = biological target: T2, TNKS2 ARC2–3 (173–487) (Homo sapiens, UniProt Q9H2K2)
T2 construct: TNKS2 ARC2–3 (173–487); His6-GST; made in house; host or cells: E. coli
T2 sequence (Q9H2K2 173-487): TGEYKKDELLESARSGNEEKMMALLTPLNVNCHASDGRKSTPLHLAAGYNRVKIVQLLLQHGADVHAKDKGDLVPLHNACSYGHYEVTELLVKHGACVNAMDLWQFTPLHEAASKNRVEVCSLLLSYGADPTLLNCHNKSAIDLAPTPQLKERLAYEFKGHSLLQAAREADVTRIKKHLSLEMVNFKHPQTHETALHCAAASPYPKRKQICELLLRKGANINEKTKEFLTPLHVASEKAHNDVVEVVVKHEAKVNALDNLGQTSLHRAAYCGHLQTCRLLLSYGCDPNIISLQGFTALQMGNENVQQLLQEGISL
Procedure: as §1

[3] = biological target: T3, TNKS ARC1 (178–336) (Homo sapiens, UniProt O95271)
T3 construct: TNKS ARC1 (178–336); His6-GST; made in house; host or cells: E. coli
T3 sequence (O95271 178-336): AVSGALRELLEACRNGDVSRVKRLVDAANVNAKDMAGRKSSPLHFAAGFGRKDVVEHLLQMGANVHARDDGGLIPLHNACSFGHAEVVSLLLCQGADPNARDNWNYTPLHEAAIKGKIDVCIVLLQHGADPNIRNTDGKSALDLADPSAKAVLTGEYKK
Procedure: as §1

[4] = biological target: T4, TNKS2 ARC1 (20–178) (Homo sapiens, UniProt Q9H2K2)
T4 construct: TNKS2 ARC1 (20–178); His6-GST; made in house; host or cells: E. coli
T4 sequence (Q9H2K2 20-178): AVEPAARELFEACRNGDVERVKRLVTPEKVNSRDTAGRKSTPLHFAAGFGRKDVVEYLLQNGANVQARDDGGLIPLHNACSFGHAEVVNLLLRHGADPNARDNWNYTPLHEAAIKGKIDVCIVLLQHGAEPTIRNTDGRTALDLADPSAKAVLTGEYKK
Procedure: as §1

T1 sequence (O95271 331-645): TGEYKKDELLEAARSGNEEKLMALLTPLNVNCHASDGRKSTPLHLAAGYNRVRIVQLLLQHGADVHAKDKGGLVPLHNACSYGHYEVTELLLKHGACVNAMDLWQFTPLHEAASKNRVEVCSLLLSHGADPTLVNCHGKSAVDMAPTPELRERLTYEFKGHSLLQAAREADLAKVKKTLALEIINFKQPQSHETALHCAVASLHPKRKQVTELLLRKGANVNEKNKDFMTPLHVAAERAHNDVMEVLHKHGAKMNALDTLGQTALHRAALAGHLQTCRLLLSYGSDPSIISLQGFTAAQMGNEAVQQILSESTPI

O=C(NCc1ccco1)c1ccc2nccnc2c1 [compound 9]
waterLOGSY [1]: negative NOE signal | waterLOGSY [2]: negative NOE signal | waterLOGSY [3]: negative NOE signal | waterLOGSY [4]: no NOE
